# In patent US20090117406A1, “CONCENTRATE FOR FILM PRESERVATION” (priority 2006, published 2009):
# Tests used:
# [1] = test system: Aspergillus niger DSM 1988, Penicillium expansum DSM 1282 and Trichoderma viride DSM 63064; test: Fungicide trial with weathering on plaster test pieces (VdL guideline 06), fungus mix 2; assay type: cell-based; conditions: rating after 21 days 0 or 1, for mixtures order of ppm follows order of active agents
# Method: (§1) The sample to be tested is plaster. The untreated sample is equipped with the cited biocides or single active agents in different concentrations. […] For preparing the samples the plaster is equipped with biocides and from that test pieces are formed. For that purpose for each test piece 7 g plaster are weighed in a small plastic mould and spread evenly. For complete drying the plaster test pieces are stored for three days at room temperature. The prepared test bodies are put in 100 ml tap water each for three days the water being exchanged daily. Then a 15 h phase of drying follows in a circulation air cabinet at 50° C. and 60 circles/min. After three days of equi libration at room temperature the test pieces are sterilised superficially and brought in the biological test. The superficial sterilisation is carried directly before putting them on the nutritive substratum by a exposure to UV radiation on both sides each for 10 minutes under a mercury medium pressure radiator. The evaluations for fungus are carried out on malt extract agar (for example by Fluka). For mix 1 Alternaria alternata DSM 62010 and Ulocladium consortial DSM 6201 is used. For mix 2 Aspergillus niger DSM 1988, Penicillium expansum DSM 1282 and Trichoderma viride DSM 63064 is used. These are used as about 14 days old cultures on inclined agar tubes for producing suspension. For that purpose to each tube 3 ml sterile Ringer's solution are added, and then washed away with a sterile os (this corresponds with a germination index of about 10^8 to 10^9 KBE/ml [KBE=(Kolonie bildende Einheiten) units forming colonies]). […] The nutritive substratum with the put-on test pieces is injected with one of the listed fungus mixtures and incubated at room temperature. After 7, 14 and 21 days the test pieces are evaluated with respect to the fungus growth according to the following rating: 00=sample surface without fouling, with inhibitory aureole around test piece 0=sample surface without fouling, without inhibitory aureole around test piece […] […]
# [2] = test system: Alternaria alternata DSM 62010 and Ulocladium consortial DSM 6201; test: Fungicide trial with weathering on plaster test pieces (VdL guideline 06), fungus mix 1; assay type: cell-based; conditions: rating after 21 days 0 or 1, for mixtures order of ppm follows order of active agents
# Method: as §1
SMILES,ppm a.i. in plaster dosed additionally (minimal ppm concentration as fungus growth is obstructed clearly) [1],ppm a.i. in plaster dosed additionally (minimal ppm concentration as fungus growth is obstructed clearly) [2]
"CCCCCCCCn1sccc1=O [OIT, 2-octyl-2H-isothiazole-3-one]",>500(#) ppm,200 ppm
"CCCC1COC(Cn2cncn2)(c2ccc(Cl)cc2Cl)O1 (stereo not drawn) [Propiconazol, 1-[[2-(2,4-dichlorphenyl)-4-propyl-1,3-dioxolane-2-yl]methyl] 1 H-1,2,4-triazol]",>2000(#) ppm,2000 ppm
"N#Cc1c(Cl)c(Cl)c(Cl)c(C#N)c1Cl [CTL, 1,3-dicyano-2,4,5,6-tetrachlorbenzole]",800 ppm,400 ppm
